One data set has as its target T1, RXR-VDR heterodimer (Homo sapiens, UniProt P11473).
T1 construct: add the Reporter gene pFR-LUC; and add the Gal-4-RXR-DEF and VP16-VDR-LBD; expressed in transfected cells; host or cells: SaOS-2 cells
T1 sequence (P11473 127-423 limits assumed): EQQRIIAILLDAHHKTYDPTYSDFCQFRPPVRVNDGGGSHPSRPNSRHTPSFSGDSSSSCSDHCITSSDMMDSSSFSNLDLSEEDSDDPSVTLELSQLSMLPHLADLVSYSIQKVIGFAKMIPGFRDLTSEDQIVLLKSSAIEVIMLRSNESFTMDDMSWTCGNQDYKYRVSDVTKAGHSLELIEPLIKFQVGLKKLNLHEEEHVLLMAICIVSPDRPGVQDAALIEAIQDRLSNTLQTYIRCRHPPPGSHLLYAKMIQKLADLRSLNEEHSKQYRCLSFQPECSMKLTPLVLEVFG
T1 sequence (P19793 201-462 partner limits assumed): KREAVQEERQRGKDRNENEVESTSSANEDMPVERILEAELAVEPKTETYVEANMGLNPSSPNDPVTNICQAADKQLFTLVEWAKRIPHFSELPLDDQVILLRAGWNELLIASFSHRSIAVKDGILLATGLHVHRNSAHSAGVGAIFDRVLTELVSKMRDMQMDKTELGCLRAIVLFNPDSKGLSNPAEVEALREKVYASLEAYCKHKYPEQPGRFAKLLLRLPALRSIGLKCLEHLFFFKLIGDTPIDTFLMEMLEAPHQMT
Put plainly: RXR-VDR heterodimerization (SaOS-2 cells) test. Format: cell-based. The note with it: Gal-4-RXR-DEF / VP16-VDR-LBD, luciferase reporter. The procedure: 2. The RXR-VDR heterodimerization (SaOS-2 cells) test is described in the “Assay” section of the Description, infra.
1. The RXR-VDR Heterodimer Assay:
This assay provides the VDR activity of a test compound. It is desirable to have low EC50 values for a compound in this assay. […] Desired assay results are EC50 values less than or equal to 600 nM. Preferred assay results are less than 250 nM, and most preferably less than 150 nM.
(1) Materials and Method for RXR-VDR Heterodimerization Assay Transfection
• Method: Reagents: FuGENE 6 Transfection Reagent (Roche Cat #1 814 443); Growth Media: D-MEM High Glucose (Gibco BRL Cat #11054-020), 10% heat inactivated FBS, (Gibco BRL Cat#10092-147) 1% antibiotic-antimycotic (Ab-Am); (Gibco BRL Cat #15240-062). • Cells: Grow SaOS-2 cells in T-150 cm^2 culture flasks in growth media keeping the density at 5-6×10^5 cells/ml. Passage cells 1:3 twice a week. Add Trypsin EDTA (Gibco BRL Cat #25300-020) and incubate. Resuspend cells in plating media and transfer into growth media. • Wash Media: HBSS Low Glucose Without Phenol Red (Gibco BRL Cat #14175-095), 1% Ab-Am. Plating Media: D-MEM Low Glucose Without Phenol Red (Gibco BRL Cat #11054-020), 1% Ab-Am; D-MEM; 10% Stripped FBS (Hyclone Cat#SH30068.03 Lot #AHM9371); • Transfection/Treatment Media: D-MEM Low Glucose Without Phenol Red only; T-150 cm^2 culture flask: Use Corning Coastar T-150 cm^2 culture flask (Cat #430825) to grow the cells. • Luciferase Assay Reagent: Use Steady-Glo Luciferase Reagent from Promega (Cat #E2550) Consists of: E2533 Assay Substrate, lyophilized product and E2543 Assay Buffer. Thaw at room temperature and store. • Cell Harvesting/Count: Aspirate media from culture flask, rinse cells with HBSS and aspirate. Add trypsin and incubate. When cells appear detached, resuspend cells in growth media. Transfer into a new flask with fresh growth media for passaging the cells. Plate 96 well plates and two extra plates. Mix the cell suspension using pipette. To count the cells using a Hematocytometer. • Plate seeding: Use plating media 10% Stripped FBS in D-MEM Low Glucose, without Phenol Red, 1% Ab-Am. Plate 14 plates @ 165 μl/well. In sterile flask add cell suspension to plating media and mix. Add cells/well. Place the cells in the incubator. Cells should be about 75% confluent prior to transfection. DAY 2: Transfection: Step 1, DNA and Media: Add plain DMEM media to tubes for mixing the DNA; add the Reporter gene pFR-LUC; and add the Gal-4-RXR-DEF and VP16-VDR-LBD. Step 2, FuGENE and Media: Prepare plain DMEM media in a tubes for mixing FuGENE, add FuGENE 6 Transfection Reagent, and incubate. Step 3, FuGENE, DNA and Media Complex: Add FuGENE Media complex from step 2 to DNA Media complex from step 1 and incubate. Step 4, FuGENE, DNA and Media Complex to 96 well plate: Add FuGENE-DNA-Media complex from step 3 to each plate. Incubate. • Day 3: Dosing: Treatment preparation. Allow for transfection time. Make a stock solution of the compounds in DMSO and vortex until all the compounds have been dissolved. Further dilute in D-MEM (Low Glucose—without Phenol Red) Add compounds in quadruplicate to give desired final volume then incubate. • Day 4: Luciferase Assay: Read the plates after drug treatment. Remove part of media from all the wells and leave remainder. Add Steady-Glo Luciferase Reagent mixture/wells and incubate. Count each well using a Luminescence counter, Top Count NXT by Packard preferably set a delay between plates to reduce the background.

The subject of the next data set is rat osteocalcin promoter. Kind of data set: OCN (osteocalcin) promoter assay. The class given is cell-based. The settings on record: RG-15 (ROS 17/2.8) cells, 48 hr treatment, luciferase reporter. How it is done: 4. The OCN Promoter test is described in the “Assay” section of the Description, infra.
The OCN (Osteocalcin) Promoter Assay
The OCN Promoter Assay is an indicator and marker for osteoporosis. Desired assay results are EC50 less than or equal to 325 nM. Preferred assay results are less than 50 nM.
The activation of osteocalcin by VDR ligands is evaluated in a rat osteoblast-like cell line RG-15 (ROS 17/2.8) stably expressing rat osteocalcin promoter fused with luciferase reporter gene. The stable cell lines are established as reported before (Activation of Osteocalcin Transcription involves interaction of protein kinase A- and Protein kinase C-dependent pathways. Boguslawski, G., Hale, L. V., Yu, X.-P., Miles, R. R., Onyia, J. E., Santerre R. F., Chandrasekhar, S. J Biol. Chem. 275, 999-1006, 2000). Confluent RG-15 cells maintained in DMEM/F-12 medium (3:1) containing 5% FBS, 300 μg/ml G418 and at 37° C. under 5% CO2/95% air atmosphere are trypsinized (0.25% trypsin) and plated into white opaque 96-well cell culture plates (25000 cells/well). After 24 hr, cells (in DMEM/F-12 medium+2% FBS) are treated with various concentrations of compounds, dissolved in DMSO. The final DMSO concentration remains at 0.01% (v/v). After 48 hr treatment, the medium is removed, cells are lysed with 50 μl of lysis buffer (From Luciferase reporter assay system, Roche Diagnostics, Indianapolis, Ind.) and then assayed for luciferase activity using the Luciferase Reporter Gene Assay kit from Boehringer Mannheim as per manufacturer's specifications.
(In general: A reporter such as luciferase makes a cellular process visible.)

A short description of data set [1]: Mouse hypercalcemia assay. The class given is in vivo. The procedure: 5. The Mouse Hypercalcemia test is described in the “Assay” section of the Description, infra.
The Mouse Hypercalcemia Assay
The Mouse Hypercalcemia Assay is a six day hypercalcemia test for toxicity and selectivity. Acceptable test results are levels greater than 30 μg/kg/day. Preferred assay results are levels greater than 300 μg/kg/day.
Weanling, virus—antibody-free, five to six weeks old female DBF mice (Harlan, Indianapolis, Ind.) are used for all the studies. Animals are allowed to acclimate to local vivarium conditions for 2 days. Mice are maintained on a 12 hr light/dark cycle at 22° C. with ad lib access to food (TD 5001 with 1.2% Ca and 0.9% P, Teklad, Madison, Wis.) and water. The animals then are divided into groups with 4-5 mice per group. Different doses of test compounds prepared in 10% ethanol and 90% sesame oil, or in an aqueous suspension of sodium lauryl sulfate and CMC (the latter formulation for acidic compounds) are administered to mice orally via gavage for 6 days. 1α-25(OH)2D3 0.5 μg/kg/d was also given to one group of mice as the positive control. Serum ionized calcium is evaluated at 6 hours after the last dosing under isoflurane anesthesia by Ciba-Corning Ca++/PH Analyzer, (Model 634, Chiron Diagnostics Corp., East Walpole, Mass.). Raw data of group differences is assessed by analysis of variance (ANOVA) using Fisher's protected least significant difference (PLSD) where the significance level was P<0.05.

Another data set has as its target T2, VDR (Homo sapiens, UniProt P11473).
T2 construct: the receptor expression vector pGal4-VDR-LBD (10 ng); expressed in transfected cells; host or cells: Caco-2 cells
T2 sequence (P11473 127-423 limits assumed): T1 sequence (P11473 127-423 limits assumed)
Kind of data set: VDR CTF (Caco-2 cells) co-transfection assay. The class given is cell-based. The settings on record: pGal4-VDR-LBD, luciferase reporter. How it is done:
3. The VDR CTF (Caco-2 cells) test is described in the “Assay” section of the Description, infra.
The Caco-2 cell assay is an indicator for the undesirable condition of hypercalcemia. This co-transfection assay is a surrogate assay for in vivo calcemic activity of VDR ligands. It is desirable to have high EC50 values for a test compound in this assay. The higher the EC50 values for a compound the less calcemic it will be in vivo. Desired assay results are EC50 greater than or equal to 300 nM. Preferred assay results are greater than 1000 nM.
Caco-2 cells, grown in phenol red free, DMEM (Invitrogen, Carlsbad, Calif.) containing 10% charcoal-stripped FBS (Hyclone, Logan, Utah), are transfected with Fugene 6 reagent (Roche Diagnostics, Indianapolis, Ind.). Cells (5000/well) are plated 18 h before transfection in a 96 well plate. The cells are transfected with Gal4-responsive reporter pFRLuc (150 ng, Stratagene, La Jolla Calif.) and the receptor expression vector pGal4-VDR-LBD (10 ng), along with Fugene 6 reagent (0.2 μl/well). The DNA-Fugene complex is formed by incubating the mixture for 30 m at room temperature. The cells are transfected in triplicate for 5 h, and treated with various concentrations of VDR ligands (from 0.01 nM to […] concentration range) 18 h post-transfection. The luciferase activity is quantified using Steady-Glo reagent kit (Promega, Madison, Wis.) as per manufacturer's specifications.

[2] abbreviates: no effect level: highest dose that did not cause hypercalcemia, oral gavage for 6 days, female DBF mice, serum ionized calcium.

These results are taken from US7943795B2, “Vitamin D receptor modulators” (Eli Lilly and Company, priority 2004, dated 2011).

For orientation: EC50 means the concentration at which the effect is half-maximal.

Turning to `CCC(CC)(c1ccc(OCC(O)C(C)(C)C)c(C)c1)c1ccc2cc(C(=O)O)ccc2c1` (single isomer, unassigned) [Ex. 2B, 6-{1-Ethyl-1-[4-(2-hydroxy-3,3-dimethyl-butoxy)-3-methyl-phenyl]-propyl}-naphthalene-2-carboxylic acid], the EC50 on RXR-VDR heterodimer worked out at 25.3 nM; with rat osteocalcin promoter, 18.4 nM. Besides, the “Mouse Hypercal” value in data set [1] (female, DBF, mouse, in vivo, po, 6 days) is 1000 µg/kg/day.

Take `CCC(CC)(c1ccc(OCC(=O)C(C)(C)C)c(C)c1)c1ccc2ccc(C(=O)O)cc2c1` [Ex. 6, 7-{1-[4-(3,3-Dimethyl-2-oxobutoxy)-3-methylphenyl]-1-ethylpropyl}naphthalene-2-carboxylic acid]: the half-maximal effective concentration (EC50) amounted to 715 nM on RXR-VDR heterodimer; 714 nM at VDR; 104 nM with rat osteocalcin promoter (Rattus norvegicus, 48 h).

Regarding `CCC(Oc1ccc(C(CC)(CC)c2ccc3cc(C(=O)NCC(=O)O)ccc3c2)cc1C)C(O)C(C)(C)C` (stereo not drawn) [Ex. 7, 2-[6-{1-ethyl-1-[4-(1-ethyl-2-hydroxy-3,3-dimethyl-butoxy)-3-methyl-phenyl]-propyl}-naphthalene-2-carbonylamino]acetic acid], the half-maximal effective concentration (EC50) on RXR-VDR heterodimer stood at 2.6 nM; in the data set with rat osteocalcin promoter (Rattus norvegicus, 48 h) it was 0.7 nM. The “Mouse Hypercal” value in data set [1] (setting [2]) is 100 µg/kg/day.

As to `CCC(Oc1ccc(C(CC)(CC)c2ccc3cc(C(=O)N(C)CC(=O)O)ccc3c2)cc1C)C(O)C(C)(C)C` (stereo not drawn) [Ex. 8, N-methyl-2-[6-{1-ethyl-1-[4-(1-ethyl-2-hydroxy-3,3-dimethyl-butoxy)-3-methyl-phenyl]-propyl}-naphthalene-2-carbonyl-amino]acetic acid], the EC50 on RXR-VDR heterodimer was 2 nM; in the data set on rat osteocalcin promoter (Rattus norvegicus, 48 h) it was 0.6 nM. Further, the “Mouse Hypercal” value in data set [1] (setting [2]) was 300 µg/kg/day.
